Test results published in PMC9146984, “A Novel Proline-Rich Cathelicidin from the Alpaca Vicugna pacos with Potency to Combat Antibiotic-Resistant Bacteria: Mechanism of Action and the Functional Role of the C-Terminal Region” (Membranes, 2022).
Values after ≈ are worked out from the molar mass of the structure shown. Where two headings read alike, the source gives them in different places. Where a SMILES comes first, the peptide text is derived from it.

Key:
E. coli BW25113 ΔsbmA = assay type: cell-based, Escherichia coli; conditions: Mueller–Hinton broth, 24 h, 37 °C, median
Protocol: (§1) The reduction of resazurin to resorufin was measured.

E. coli BW25113 ΔmdtM = assay type: cell-based, Escherichia coli; conditions: Mueller–Hinton broth, 24 h, 37 °C, median
Protocol: as §1

E. coli BW25113 ΔompF = assay type: cell-based, Escherichia coli; conditions: Mueller–Hinton broth, 24 h, 37 °C, median
Protocol: as §1

[1] = test system: VicBac[1–22]-resistant E. coli MDR 1057 strain; conditions: Mueller-Hinton broth supplemented with 0.9% NaCl; strain selected 14 days with VicBac[1-22]; cross-resistance
Protocol: (§2) Bacterial test cultures were grown in the Mueller-Hinton broth (MH; Sigma, St. Louis, MO, USA) at 37 °C to mid-log phase and then diluted with the 2× MH medium supplemented with 1.8% NaCl or without salt so that to reach a final cell concentration of 10^6 CFU/mL. 50 µL of the obtained bacterial suspension were added to aliquots of 50 µL of the peptide solutions serially diluted with sterilized 0.1% bovine serum albumin (BSA) in 96-well flat-bottom polystyrene microplates (Eppendorf #0030730011, Hamburg, Germany). […] To verify MIC values, the respiratory activity of the bacteria was determined. Briefly, 20 µL of 0.1 mg/mL resazurin (a redox indicator; Sigma, St. Louis, MO, USA) was added to the wells after 24 h of incubation, and the plate was incubated for an additional two hours. The reduction of resazurin to resorufin was measured. […] The results were expressed as the median values determined based on at least three independent experiments performed in triplicate.
(§3) Resistance induction experiments were performed using the previously described method. Briefly, on day one, the overnight culture of wild-type bacteria was diluted with the 2× MH broth supplemented with 1.8% NaCl to reach a final cell concentration of 10^6 CFU/mL. 50 µL of the obtained bacterial suspension were added to aliquots of 50 µL of the peptide solutions serially diluted with the sterilized 0.1% BSA in 96-well flat-bottom polystyrene microplates. After incubation for 20 ± 2 h at 37 °C and 950 rpm, MICs were determined as described above. For each subsequent daily transfer, 2–4 μL of the inoculum taken from the first well containing a sub-inhibitory drug concentration were diluted with 2 mL of the fresh 2× MH broth supplemented with 1.8% NaCl. […] 14 repeated passages in the presence of antimicrobial agents were made for each bacterial strain during the experiment. Bacteria that grew at the highest concentration of AMPs on the final day were passaged a further 3 times on drug-free agar plates before determining the final MIC value.

E. coli MDR CI 1057 = conditions: Mueller-Hinton broth supplemented with 0.9% NaCl; for Minimum inhibitory concentration E.coli MDR 1057 14 days w/o AMP: after 14 passages without antimicrobial agents; for Minimum inhibitory concentration E.coli MDR 1057 0 days: before passages
Protocol: as §2, §3

E. coli BW25113 = assay type: cell-based, Escherichia coli; conditions: Mueller–Hinton broth, 24 h, 37 °C, median
Protocol: as §1

E. coli MDR 1057 = conditions: MH broth with 0.9% NaCl, 14 passages with the same agent (VicBac[1–22]: after 10 passages)
Protocol: Resistance induction experiments were performed using the previously described method. Briefly, on day one, the overnight culture of wild-type bacteria was diluted with the 2× MH broth supplemented with 1.8% NaCl to reach a final cell concentration of 10^6 CFU/mL. 50 µL of the obtained bacterial suspension were added to aliquots of 50 µL of the peptide solutions serially diluted with the sterilized 0.1% BSA in 96-well flat-bottom polystyrene microplates. After incubation for 20 ± 2 h at 37 °C and 950 rpm, MICs were determined as described above. For each subsequent daily transfer, 2–4 μL of the inoculum taken from the first well containing a sub-inhibitory drug concentration were diluted with 2 mL of the fresh 2× MH broth supplemented with 1.8% NaCl. […] Bacteria that grew at the highest concentration of AMPs on the final day were passaged a further 3 times on drug-free agar plates before determining the final MIC value.

Structure (SMILES) | Minimum inhibitory concentration, E. coli strain ΔsbmA (E. coli BW25113 ΔsbmA; 0.9% NaCl: +) | Minimum inhibitory concentration, E. coli strain ΔsbmA (E. coli BW25113 ΔsbmA; 0.9% NaCl: −) | Minimum inhibitory concentration, E. coli strain ΔmdtM (E. coli BW25113 ΔmdtM; 0.9% NaCl: +) | Minimum inhibitory concentration, E. coli strain ΔmdtM (E. coli BW25113 ΔmdtM; 0.9% NaCl: −) | Minimum inhibitory concentration, E. coli strain ΔompF (E. coli BW25113 ΔompF; 0.9% NaCl: +) | Minimum inhibitory concentration, E. coli strain ΔompF (E. coli BW25113 ΔompF; 0.9% NaCl: −) | Minimum inhibitory concentration E.coli MDR 1057 14 days with VicBac [1-22] [1] | Minimum inhibitory concentration E.coli MDR 1057 14 days w/o AMP (E. coli MDR CI 1057) | Minimum inhibitory concentration E.coli MDR 1057 0 days (E. coli MDR CI 1057) | Minimum inhibitory concentration, E. coli strain BW25113 (E. coli BW25113; 0.9% NaCl: +) | Minimum inhibitory concentration, E. coli strain BW25113 (E. coli BW25113; 0.9% NaCl: −) | increase in MIC value after serial passage selection (E. coli MDR 1057)
CC[C@H](C)[C@H](NC(=O)[C@H](CCCNC(=N)N)NC(=O)[C@@H](N)CCCNC(=N)N)C(=O)N[C@@H](CCCNC(=N)N)C(=O)N1CCC[C@H]1C(=O)N[C@@H](CCCNC(=N)N)C(=O)N1CCC[C@H]1C(=O)N1CCC[C@H]1C(=O)N[C@@H](CCCNC(=N)N)C(=O)N[C@@H](CC(C)C)C(=O)N1CCC[C@H]1C(=O)N[C@@H](CCCNC(=N)N)C(=O)N1CCC[C@H]1C(=O)N[C@@H](CCCNC(=N)N)C(=O)N1CCC[C@H]1C(=O)N[C@@H](CCCNC(=N)N)C(=O)N1CCC[C@H]1C(=O)N[C@@H](CC(C)C)C(=O)N1CCC[C@H]1C(=O)N[C@@H](Cc1ccccc1)C(=O)N1CCC[C@H]1C(=O)N[C@@H](CCCNC(=N)N)C(=O)O [Bac7[1-22], reference compound] (H-RRIRPRPPRLPRPRPRPLPFPR-OH) | 32 µM (≈ 89.1 µg/mL) | 1 µM (≈ 2.78 µg/mL) | 1 µM (≈ 2.78 µg/mL) | 4 µM (≈ 11.1 µg/mL) | 32 µM (≈ 89.1 µg/mL) | 2 µM (≈ 5.57 µg/mL) | > 128 µM | 1 µM (≈ 2.78 µg/mL) | 1 µM (≈ 2.78 µg/mL) |  |  | 
CC[C@H](C)[C@H](NC(=O)[C@H](CCCCN)NC(=O)[C@H](CCC(=O)O)NC(=O)[C@H](CCCCN)NC(=O)[C@H](CO)NC(=O)[C@H](CCCCN)NC(=O)[C@H](CCCNC(=N)N)NC(=O)[C@H](Cc1ccccc1)NC(=O)[C@H](Cc1ccccc1)NC(=O)[C@H](CC(=O)O)NC(=O)CNC(=O)[C@H](CC(C)C)NC(=O)[C@@H](N)CC(C)C)C(=O)NCC(=O)N[C@@H](CCCCN)C(=O)N[C@@H](CCC(=O)O)C(=O)N[C@@H](Cc1ccccc1)C(=O)N[C@@H](CCCCN)C(=O)N[C@@H](CCCNC(=N)N)C(=O)N[C@H](C(=O)N[C@H](C(=O)N[C@@H](CCC(N)=O)C(=O)N[C@@H](CCCNC(=N)N)C(=O)N[C@H](C(=O)N[C@@H](CCCCN)C(=O)N[C@@H](CC(=O)O)C(=O)N[C@@H](Cc1ccccc1)C(=O)N[C@@H](CC(C)C)C(=O)N[C@@H](CCCNC(=N)N)C(=O)N[C@@H](CC(N)=O)C(=O)N[C@@H](CC(C)C)C(=O)N[C@H](C(=O)N1CCC[C@H]1C(=O)N[C@@H](CCCNC(=N)N)C(=O)N[C@H](C(=O)N[C@@H](CCC(=O)O)C(=O)N[C@@H](CO)C(=O)O)[C@@H](C)O)C(C)C)[C@@H](C)CC)C(C)C)[C@@H](C)CC [LL-37, reference compound] | 2 µM (≈ 8.99 µg/mL) | 4 µM (≈ 18 µg/mL) | 4 µM (≈ 18 µg/mL) | 4 µM (≈ 18 µg/mL) | 2 µM (≈ 8.99 µg/mL) | 4 µM (≈ 18 µg/mL) | 4 µM | 4 µM (≈ 18 µg/mL) | 4 µM (≈ 18 µg/mL) | 2 µM (≈ 8.99 µg/mL) | 4 µM (≈ 18 µg/mL) | 2 fold
CC(C)C[C@H](NC(=O)[C@H](CCCNC(=N)N)NC(=O)[C@@H]1CCCN1C(=O)[C@@H]1CCCN1C(=O)[C@H](Cc1ccccc1)NC(=O)[C@H](Cc1ccccc1)NC(=O)[C@@H]1CCCN1C(=O)[C@@H]1CCCN1C(=O)[C@@H]1CCCN1C(=O)[C@H](CCCNC(=N)N)NC(=O)[C@@H]1CCCN1C(=O)[C@H](CCCNC(=N)N)NC(=O)[C@@H]1CCCN1C(=O)[C@H](CC(C)C)NC(=O)[C@H](Cc1ccc(O)cc1)NC(=O)[C@@H]1CCCN1C(=O)[C@@H]1CCCN1C(=O)[C@H](CCCNC(=N)N)NC(=O)[C@@H]1CCCN1C(=O)[C@H](CCCNC(=N)N)NC(=O)[C@H](CCCNC(=N)N)NC(=O)[C@@H](N)CCCNC(=N)N)C(=O)O [PR-39[1-22]] (H-RRRPRPPYLPRPRPPPFFPPRL-OH; N-terminus and C-terminus assumed) |  |  |  |  |  |  | > 128 µM | 2 µM (≈ 5.53 µg/mL) | 2 µM (≈ 5.53 µg/mL) |  |  | 
